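Method: 48-hour compound exposure of cells in 96-well plates, five concentrations, linear interpolation of endpoints. GI50 is the concentration that inhibits growth by half. TGI is the concentration that stops growth completely.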
Tests used:
Assay in all cases: DTP human tumour cell line panel, 48 h
A549 NSCLC = test system: A549 NSCLC
CAKI-1 renal = test system: CAKI-1 renal
COLO 205 colon = test system: COLO 205 colon
DU-145 prostate = test system: DU-145 prostate
EKVX NSCLC = test system: EKVX NSCLC
HCT-116 colon = test system: HCT-116 colon
NCI-H460 lung = test system: NCI-H460 lung
PC-3 prostate = test system: PC-3 prostate
SN12C renal = test system: SN12C renal
SNB-75 CNS = test system: SNB-75 CNS

SMILES | GI50 (A549 NSCLC) [µM] | TGI (A549 NSCLC) [µM] | GI50 (CAKI-1 renal) [µM] | TGI (CAKI-1 renal) [µM] | GI50 (COLO 205 colon) [µM] | TGI (COLO 205 colon) [µM] | GI50 (DU-145 prostate) [µM] | TGI (DU-145 prostate) [µM] | GI50 (EKVX NSCLC) [µM] | TGI (EKVX NSCLC) [µM] | GI50 (HCT-116 colon) [µM] | TGI (HCT-116 colon) [µM] | GI50 (NCI-H460 lung) [µM] | TGI (NCI-H460 lung) [µM] | GI50 (PC-3 prostate) [µM] | TGI (PC-3 prostate) [µM] | GI50 (SN12C renal) [µM] | TGI (SN12C renal) [µM] | GI50 (SNB-75 CNS) [µM] | TGI (SNB-75 CNS) [µM]
O=C(c1ccco1)c1nc2cc(C(F)(F)F)ccc2nc1C(F)(F)F | > 100 | > 100 | > 100 | > 100 | > 100 | > 100 | > 100 | > 100 | > 100 | > 100 | > 100 | > 100 | > 100 | > 100 | > 100 | > 100 | > 100 | > 100 | 18.9 | 62.7
COc1ccc(N=Cc2c(O)ccc3c2oc2cc(Cl)c(O)c(Cl)c23)cc1 | 14.5 | 48.2 | 4.75 | 28.1 | 16 | 33.2 | 18.9 | 45.9 | 10.7 | 38 | 21 | 56.9 | 12.7 | 33.9 | 14.8 | 57.3 | 19.3 | 63.6 | 12.7 | 48.8
CC12OOC(c3ccccc31)c1c2ccc2ccccc12 (configuration not stated) | – | 8.43 | – | 4.64 | – | 3.24 | – | 32.4 | – | 18.7 | – | 3.21 | – | 5.48 | – | 18.8 | – | 29.6 | – | 22.5
N#Cc1c(NC(=O)NCc2ccccc2)sc2c1CCCC2 | 0.731 | > 100 | 0.776 | > 100 | 0.593 | > 28.9 | 0.801 | > 33.5 | 2 | > 100 | 0.533 | > 100 | 0.407 | > 100 | 0.559 | > 100 | 0.813 | > 100 | 0.249 | 36
O=C(/C=C/c1ccco1)c1cc(F)c(Cl)cc1Cl | 22 | 70.7 | 32.7 | > 100 | 18.6 | 38.4 | 19.9 | 44.1 | 17.1 | 37.3 | 14.9 | 31.6 | 24.2 | 72.4 | 24.8 | 80.1 | 22.9 | 57.5 | 22.3 | 44.2
CCCCCCCC/C=C/CCCCCCCC1=NC(C)(C)CN1CC(C)O (configuration not stated) | 1.8 | 3.42 | 1.53 | 3 | 1.76 | 3.45 | 1.71 | 3.09 | 4.84 | 18.2 | 1.84 | 3.32 | 1.94 | 3.64 | 2.26 | 8.08 | 3.3 | 12.3 | 1.81 | 4.23
CN1CCC(COc2cnc(-c3cccc(Cn4nc(-c5cccc(C#N)c5)ccc4=O)c3)nc2)CC1 | 3.52 | 14.7 | 3.15 | 13.8 | 1.92 | 3.68 | 4.76 | 30.5 | 9.45 | 40 | 2.41 | 6.35 | 3.58 | 12.3 | 6.7 | 31.8 | 6.89 | 19.6 | 1.81 | 5.28
O=C1CC[C@H](N2C(=O)c3cccc4c(Cc5ccc(CN6CCOCC6)cc5)ccc2c34)C(=O)N1 | 52.6 | > 100 | 62.1 | > 100 | 45.8 | > 100 | > 100 | > 100 | 17.9 | > 100 | 33.6 | > 100 | 35.2 | > 100 | 40.4 | > 100 | 63.4 | > 100 | 2.56 | > 100
C[C@]12CC[C@@H]3c4cc(OC(F)F)c(O)cc4CC[C@H]3[C@@H]1CC[C@@H]2OS(N)(=O)=O | 0.968 | > 100 | 0.548 | > 70.2 | 1.1 | > 40 | 1.55 | > 100 | 1.51 | > 100 | 0.419 | 18.9 | 0.422 | 15.4 | 0.729 | 97.6 | 1.02 | 70.5 | 0.23 | 0.945
O=C1C(Cl)=C(Sc2nnc3c4ccccc4c4ccccc4c3n2)C(=O)c2ccccc21 | – | 71.4 | – | 31.9 | – | 38.9 | – | 22 | – | 37.7 | – | 33.3 | – | 37 | – | 46.4 | – | 33.1 | – | 8.77
O=C(O)/C=C/C(=O)N1Cc2cc3ccccc3nc2C1 | – | > 100 | – | > 100 | – | > 100 | – | > 100 | – | > 100 | – | > 100 | – | > 100 | – | > 100 | – | > 100 | – | > 100
Nc1nc2c(ncn2C2CCC(CO)O2)c(=O)n1C(=O)c1ccccc1 (configuration not stated) | – | > 100 | – | > 100 | – | > 100 | – | > 100 | – | > 100 | – | > 100 | – | > 100 | – | > 100 | – | > 100 | – | > 100
C=C(C)[C@@H]1CC[C@]2(COCCC#N)CC[C@]3(C)[C@H](CC[C@@H]4[C@@](C)(CCCNCCC#N)[C@H](C(=C)C)CC[C@]43C)[C@@H]12 | 34.4 | > 50 | 7.13 | 15.6 | 14.6 | > 50 | 21.6 | > 50 | 46.9 | > 50 | 7.25 | 13.8 | 13.2 | > 50 | 10.3 | > 50 | 10 | 29.2 | > 50 | > 50
COc1cc2nccc(Oc3ccc(NC(=O)NC4CC4)c(Cl)c3)c2cc1C(N)=O | 29.9 | > 100 | 23.9 | > 64.2 | > 72.8 | > 100 | 21.6 | > 100 | 26.1 | > 100 | 25.4 | > 100 | 39.9 | > 100 | 42.5 | > 100 | 7.44 | > 100 | 2.82 | 36.8
Cc1c(O)c2ccccc2oc1=O | – | > 100 | – | > 100 | – | > 100 | – | > 100 | – | > 100 | – | > 100 | – | > 100 | – | > 100 | – | > 100 | – | > 100
Cc1cc(Cl)cc2c(N=Nc3ccc(S(N)(=O)=O)cc3)c(O)[nH]c12 | > 25 | > 25 | > 25 | > 25 | > 25 | > 25 | > 25 | > 25 | > 25 | > 25 | > 25 | > 25 | > 25 | > 25 | > 25 | > 25 | > 25 | > 25 | > 15.6 | > 25
COC1=CC(c2ccc[nH]2)=N/C1=C\c1[nH]c(C)c(CC(=O)OCc2ccccc2)c1CCC(=O)OCc1ccccc1 | 0.427 | 10.9 | 0.343 | 2.21 | 0.26 | 1.2 | 0.438 | 12.1 | 0.349 | 4.13 | 0.233 | 1.04 | 0.399 | 13.1 | 0.346 | 12.6 | – | – | 0.275 | 1.53
Cc1ccc(NC(=O)c2ccc(CN3CCN(C)CC3)cc2)cc1Nc1nccc(-c2cccnc2)n1 | 25.9 | 89.3 | 30.3 | 67 | 16.7 | 40.5 | 19.7 | 55.6 | 26.6 | 92.1 | 13.2 | 42.6 | 16.8 | 37.1 | 21.5 | 71.6 | 30.7 | > 100 | 18.7 | 34.2
Nc1ccccc1NC(=O)c1ccc(CNc2nccc(-c3cccnc3)n2)cc1 | 1.35 | > 47.6 | 0.323 | – | 0.626 | 2.06 | 1.45 | > 100 | 1.36 | > 59.1 | 0.362 | > 100 | 1.15 | 97 | 0.928 | > 100 | 2.34 | > 72.8 | 1.43 | > 25.4
CCOC(=O)c1ccccc1OC(=O)NNc1ccccc1 | 0.874 | > 100 | 0.377 | > 100 | 2.45 | > 100 | > 48.5 | > 100 | 6.07 | > 100 | 1.69 | > 100 | 0.442 | > 100 | 7.91 | > 100 | 34.9 | > 100 | > 60.4 | > 100
NC1=CC(=O)c2cccnc2C1=O | 3.84 | 15 | 1.59 | 3.15 | 3.33 | 11.7 | 1.58 | 2.97 | 1.58 | 3.31 | 1.45 | 3.36 | 1.23 | 3.25 | 2.22 | 7.55 | 1.49 | 2.94 | 1.21 | 2.58
CC(C)(C)N1CCC1CN (configuration not stated) | > 100 | > 100 | > 100 | > 100 | > 100 | > 100 | > 100 | > 100 | > 100 | > 100 | > 100 | > 100 | > 100 | > 100 | > 100 | > 100 | > 100 | > 100 | > 100 | > 100
O=c1cc(-c2ccccc2)oc2ccc(OC/C(=N/O)c3ccccc3)cc12 | 3 | > 50 | 1.79 | 16.2 | 1.89 | 25.3 | 1.73 | > 50 | 3.82 | > 50 | 3.11 | > 50 | 1.97 | 16.9 | 2.46 | 16.1 | 2.79 | 33.9 | 2.76 | > 50
CSC1=Nc2c(c(C)c(-c3ccccc3)n2CCCN2CCCCC2)C2=NC(=O)C[C@H](C)N12 | 3.57 | > 32.6 | 12.1 | 44.5 | 1.51 | 2.95 | 4.01 | > 52.4 | 3.06 | > 44.7 | 2.71 | > 44.6 | 3.27 | 12.4 | 2.01 | 10.1 | 2.42 | 20.9 | 4.98 | 32
CCOC(=O)[C@@H](C)C[C@H](Cc1ccccc1)NC(=O)c1nc([C@@H](C[C@H](C(C)C)N(C)C(=O)[C@@H](NC(=O)[C@H]2CCCCN2C)C(C)C)OC(C)=O)sc1CCOCc1ccccc1 | 0.101 | 2.17 | 0.128 | 2.18 | 0.0522 | 0.276 | 0.0404 | 1.08 | 0.314 | > 11.1 | 0.0473 | 1.23 | 0.0425 | 1.4 | 0.0521 | 2.41 | 0.0706 | 1.55 | 0.0433 | 2.76
Cc1ccc(Cl)cc1Nc1nc(C(F)(F)F)ccc1C(=O)N/N=C/c1cccnc1 | 3.32 | 12.4 | 2.14 | 9.02 | 4.86 | 17.7 | 3.38 | 9.73 | 1.32 | 9.01 | 2.34 | 14.4 | 2.76 | 11.1 | 1.99 | 18.7 | 4.75 | 21.9 | 4.93 | 19.5
